Columns and labels:
Test in all cases: Kinobeads elution with test compound, mouse brain lysate, MS
Type in all cases: binding
Conditions in all cases: kinase released from kinobeads by specific elution
JNK3 = target: T1, JNK3 (Mus musculus, UniProt Q61831)
T1 construct: from tissue; host or cells: mouse brain
Method in brief: (§1)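 Kinobeads preloaded with mouse brain lysate under near-physiological buffer conditions were washed gently, then eluted for 30 min at 4° C with elution buffer holding 1.0 mM test compound; DMSO or DMF (2%) buffer served as control. Released proteins were reduced, alkylated, gel-separated and identified by mass spectrometry.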

GSK3Aps = target: T2, GSK3Aps (Mus musculus, UniProt Q2NL51)
T2 construct: from tissue; host or cells: mouse brain
T2 sequence (Q2NL51 2-490 limits assumed): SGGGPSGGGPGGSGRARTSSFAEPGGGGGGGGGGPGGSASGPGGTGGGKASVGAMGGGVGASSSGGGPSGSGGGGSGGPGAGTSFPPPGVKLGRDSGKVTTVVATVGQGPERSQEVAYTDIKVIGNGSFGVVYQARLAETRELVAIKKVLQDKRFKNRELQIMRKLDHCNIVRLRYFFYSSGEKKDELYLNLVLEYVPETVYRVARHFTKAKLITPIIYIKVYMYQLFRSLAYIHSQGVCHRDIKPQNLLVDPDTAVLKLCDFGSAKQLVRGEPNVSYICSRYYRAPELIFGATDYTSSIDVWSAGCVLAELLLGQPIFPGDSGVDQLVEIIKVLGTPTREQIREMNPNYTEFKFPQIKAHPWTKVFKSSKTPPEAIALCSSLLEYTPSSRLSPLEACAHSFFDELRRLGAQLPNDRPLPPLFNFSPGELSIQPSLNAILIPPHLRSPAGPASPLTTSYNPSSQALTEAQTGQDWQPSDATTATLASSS
Method in brief: as §1

CaMKK2 = CaMKK2 (Mus musculus, UniProt Q8C078)
CaMKK2, sequence (Q8C078 whole entry): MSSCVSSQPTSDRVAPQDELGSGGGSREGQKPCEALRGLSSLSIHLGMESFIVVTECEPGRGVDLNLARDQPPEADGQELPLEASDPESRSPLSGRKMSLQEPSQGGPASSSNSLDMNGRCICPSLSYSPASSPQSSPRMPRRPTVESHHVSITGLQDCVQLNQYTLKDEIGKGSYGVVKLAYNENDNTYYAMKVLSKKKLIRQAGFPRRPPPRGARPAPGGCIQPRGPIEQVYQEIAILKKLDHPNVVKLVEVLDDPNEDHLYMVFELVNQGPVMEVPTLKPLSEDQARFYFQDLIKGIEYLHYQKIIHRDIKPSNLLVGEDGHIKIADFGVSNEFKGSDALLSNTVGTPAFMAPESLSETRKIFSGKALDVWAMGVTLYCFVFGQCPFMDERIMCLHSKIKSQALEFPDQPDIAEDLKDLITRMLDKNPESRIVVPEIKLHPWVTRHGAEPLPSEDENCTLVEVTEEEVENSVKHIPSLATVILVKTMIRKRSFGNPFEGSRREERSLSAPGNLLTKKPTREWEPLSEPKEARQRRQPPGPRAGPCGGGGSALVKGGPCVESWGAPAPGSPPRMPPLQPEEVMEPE
Method in brief: as §1

CaMK2a = target: T3, CaMK2a (Mus musculus, UniProt P11798)
T3 construct: […]; from tissue; host or cells: mouse brain
Method in brief: as §1

RSK3 = target: T4, RSK3 (Mus musculus, UniProt P18653)
T4 construct: from tissue; host or cells: mouse brain
T4 sequence (P18653 whole entry): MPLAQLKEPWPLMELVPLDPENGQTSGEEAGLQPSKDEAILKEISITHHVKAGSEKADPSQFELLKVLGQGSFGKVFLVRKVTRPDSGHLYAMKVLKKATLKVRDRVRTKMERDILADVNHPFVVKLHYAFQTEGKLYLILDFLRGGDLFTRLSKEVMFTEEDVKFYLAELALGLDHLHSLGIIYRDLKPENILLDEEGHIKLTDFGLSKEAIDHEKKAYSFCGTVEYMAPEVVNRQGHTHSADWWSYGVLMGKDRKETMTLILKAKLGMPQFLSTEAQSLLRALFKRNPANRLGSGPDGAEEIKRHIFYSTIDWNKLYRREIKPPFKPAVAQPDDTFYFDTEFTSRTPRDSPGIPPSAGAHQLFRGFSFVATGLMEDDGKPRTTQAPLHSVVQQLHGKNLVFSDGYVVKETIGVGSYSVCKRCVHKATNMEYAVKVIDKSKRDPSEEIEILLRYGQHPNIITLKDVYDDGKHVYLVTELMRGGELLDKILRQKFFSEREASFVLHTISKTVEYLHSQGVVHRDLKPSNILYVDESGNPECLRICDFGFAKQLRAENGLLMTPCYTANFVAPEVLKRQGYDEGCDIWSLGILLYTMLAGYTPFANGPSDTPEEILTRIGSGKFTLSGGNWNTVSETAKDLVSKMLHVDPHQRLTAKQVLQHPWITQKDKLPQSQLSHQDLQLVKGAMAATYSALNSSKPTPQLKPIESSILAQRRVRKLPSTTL
Method in brief: as §1

EphA4 = EphA4 (Mus musculus, UniProt Q03137)
Method in brief: as §1

Erk1ps5 = target: T5, Erk1ps5 (Mus musculus, UniProt Q63844)
T5 construct: […]; from tissue; host or cells: mouse brain
T5 sequence (Q63844 2-380 limits assumed): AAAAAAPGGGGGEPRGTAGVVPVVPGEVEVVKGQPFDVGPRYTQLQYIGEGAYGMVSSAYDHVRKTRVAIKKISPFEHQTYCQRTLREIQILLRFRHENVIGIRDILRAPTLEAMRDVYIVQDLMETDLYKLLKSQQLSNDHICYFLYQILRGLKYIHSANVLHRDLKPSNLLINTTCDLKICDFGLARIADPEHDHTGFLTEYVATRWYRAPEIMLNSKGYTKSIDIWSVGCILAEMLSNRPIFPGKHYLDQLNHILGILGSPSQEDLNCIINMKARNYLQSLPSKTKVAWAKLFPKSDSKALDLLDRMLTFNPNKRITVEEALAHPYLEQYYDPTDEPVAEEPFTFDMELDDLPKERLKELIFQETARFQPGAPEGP
Method in brief: as §1

EphB2 = target: T6, EphB2 (Mus musculus, UniProt P54763)
T6 sequence (P54763 19-986): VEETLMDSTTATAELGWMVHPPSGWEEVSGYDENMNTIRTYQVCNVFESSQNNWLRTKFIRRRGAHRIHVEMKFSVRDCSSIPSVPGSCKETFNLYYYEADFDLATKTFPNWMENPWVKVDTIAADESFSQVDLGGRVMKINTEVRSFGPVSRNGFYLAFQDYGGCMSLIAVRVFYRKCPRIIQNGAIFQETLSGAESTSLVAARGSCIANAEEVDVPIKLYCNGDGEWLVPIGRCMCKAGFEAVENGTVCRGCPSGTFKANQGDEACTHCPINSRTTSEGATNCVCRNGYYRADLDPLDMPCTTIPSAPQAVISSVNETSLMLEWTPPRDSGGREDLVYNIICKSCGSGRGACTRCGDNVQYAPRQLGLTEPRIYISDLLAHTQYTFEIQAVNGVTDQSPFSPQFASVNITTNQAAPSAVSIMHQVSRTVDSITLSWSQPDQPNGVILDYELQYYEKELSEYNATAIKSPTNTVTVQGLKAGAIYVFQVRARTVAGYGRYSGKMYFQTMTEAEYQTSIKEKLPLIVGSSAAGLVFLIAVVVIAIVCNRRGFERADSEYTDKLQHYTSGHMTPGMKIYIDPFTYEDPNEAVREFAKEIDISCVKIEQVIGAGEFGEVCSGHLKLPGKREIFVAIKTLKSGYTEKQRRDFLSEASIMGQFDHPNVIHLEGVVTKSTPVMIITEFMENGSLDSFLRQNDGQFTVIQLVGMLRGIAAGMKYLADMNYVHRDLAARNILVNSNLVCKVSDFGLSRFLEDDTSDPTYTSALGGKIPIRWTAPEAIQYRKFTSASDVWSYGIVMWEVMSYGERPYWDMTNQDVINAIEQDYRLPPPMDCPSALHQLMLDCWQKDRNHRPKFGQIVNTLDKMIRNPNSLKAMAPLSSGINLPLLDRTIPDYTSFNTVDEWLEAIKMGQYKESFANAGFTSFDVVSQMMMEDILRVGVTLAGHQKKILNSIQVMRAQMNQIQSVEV
Method in brief: as §1

AAK1 = AAK1 (Mus musculus, UniProt Q3UHJ0)
AAK1, sequence (Q3UHJ0 whole entry): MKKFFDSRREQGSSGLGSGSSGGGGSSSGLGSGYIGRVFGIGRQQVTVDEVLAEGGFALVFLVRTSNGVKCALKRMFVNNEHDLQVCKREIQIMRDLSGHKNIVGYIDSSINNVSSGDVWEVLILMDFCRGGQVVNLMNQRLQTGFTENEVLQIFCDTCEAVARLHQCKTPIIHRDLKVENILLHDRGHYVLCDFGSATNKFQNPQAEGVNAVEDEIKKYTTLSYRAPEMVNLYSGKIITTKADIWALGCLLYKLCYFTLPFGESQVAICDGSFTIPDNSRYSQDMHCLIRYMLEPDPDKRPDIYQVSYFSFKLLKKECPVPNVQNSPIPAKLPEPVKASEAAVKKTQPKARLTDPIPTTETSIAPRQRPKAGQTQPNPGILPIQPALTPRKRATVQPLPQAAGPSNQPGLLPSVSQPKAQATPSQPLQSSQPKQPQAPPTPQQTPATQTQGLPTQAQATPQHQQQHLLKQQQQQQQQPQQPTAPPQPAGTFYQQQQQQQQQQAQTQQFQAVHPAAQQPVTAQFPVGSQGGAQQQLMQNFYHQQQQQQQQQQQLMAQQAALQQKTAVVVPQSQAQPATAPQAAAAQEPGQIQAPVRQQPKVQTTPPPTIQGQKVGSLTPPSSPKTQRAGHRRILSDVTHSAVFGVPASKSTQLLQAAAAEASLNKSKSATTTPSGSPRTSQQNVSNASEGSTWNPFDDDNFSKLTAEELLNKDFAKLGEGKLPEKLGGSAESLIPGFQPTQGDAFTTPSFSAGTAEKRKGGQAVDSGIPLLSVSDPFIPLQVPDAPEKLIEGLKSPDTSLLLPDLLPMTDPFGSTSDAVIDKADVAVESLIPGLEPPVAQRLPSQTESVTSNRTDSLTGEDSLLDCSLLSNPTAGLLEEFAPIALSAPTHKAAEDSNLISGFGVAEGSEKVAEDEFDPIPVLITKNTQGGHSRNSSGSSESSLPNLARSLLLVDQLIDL
Method in brief: as §1

JNK2 = target: T7, JNK2 (Mus musculus, UniProt Q9WTU6)
T7 construct: from tissue; host or cells: mouse brain
T7 sequence (Q9WTU6 whole entry): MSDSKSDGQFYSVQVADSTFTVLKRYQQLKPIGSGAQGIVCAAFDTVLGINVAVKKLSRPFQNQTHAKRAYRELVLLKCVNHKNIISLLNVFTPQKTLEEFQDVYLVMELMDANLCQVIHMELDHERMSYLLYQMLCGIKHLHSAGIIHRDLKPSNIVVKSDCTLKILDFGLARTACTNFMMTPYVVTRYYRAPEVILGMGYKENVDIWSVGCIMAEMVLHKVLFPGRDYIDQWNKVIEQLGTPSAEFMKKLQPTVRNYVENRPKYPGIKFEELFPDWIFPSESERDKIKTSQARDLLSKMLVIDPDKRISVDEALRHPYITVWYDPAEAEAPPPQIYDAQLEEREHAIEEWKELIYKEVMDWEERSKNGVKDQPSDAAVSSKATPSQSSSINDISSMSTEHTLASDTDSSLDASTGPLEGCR
Method in brief: as §1

EphA5 = EphA5 (Mus musculus, UniProt Q60629)
EphA5, sequence (Q60629 27-876): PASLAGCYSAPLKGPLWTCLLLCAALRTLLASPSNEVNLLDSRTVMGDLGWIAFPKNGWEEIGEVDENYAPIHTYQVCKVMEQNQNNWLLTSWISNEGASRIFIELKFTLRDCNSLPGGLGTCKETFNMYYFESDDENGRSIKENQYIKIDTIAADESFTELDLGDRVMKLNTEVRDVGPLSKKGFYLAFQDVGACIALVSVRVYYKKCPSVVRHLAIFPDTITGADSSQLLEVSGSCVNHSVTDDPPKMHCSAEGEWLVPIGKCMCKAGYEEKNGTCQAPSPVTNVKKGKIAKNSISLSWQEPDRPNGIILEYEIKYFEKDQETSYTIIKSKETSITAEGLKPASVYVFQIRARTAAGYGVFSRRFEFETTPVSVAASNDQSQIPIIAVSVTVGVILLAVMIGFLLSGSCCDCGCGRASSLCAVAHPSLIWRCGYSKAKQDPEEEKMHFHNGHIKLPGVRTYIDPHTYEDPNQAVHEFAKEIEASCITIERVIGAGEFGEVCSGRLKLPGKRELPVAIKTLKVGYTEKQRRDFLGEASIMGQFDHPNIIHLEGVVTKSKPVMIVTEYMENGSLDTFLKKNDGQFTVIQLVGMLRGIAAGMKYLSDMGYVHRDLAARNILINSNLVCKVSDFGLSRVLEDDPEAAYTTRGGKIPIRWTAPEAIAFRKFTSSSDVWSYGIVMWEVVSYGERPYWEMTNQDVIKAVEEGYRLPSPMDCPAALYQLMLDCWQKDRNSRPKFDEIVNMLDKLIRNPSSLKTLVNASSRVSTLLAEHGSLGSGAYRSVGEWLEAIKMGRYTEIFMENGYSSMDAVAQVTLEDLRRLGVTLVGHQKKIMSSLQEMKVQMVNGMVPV
Method in brief: as §1

Erk2 = target: T8, Erk2 (Mus musculus, UniProt P63085)
T8 construct: […]; from tissue; host or cells: mouse brain
Method in brief: as §1

T1 sequence (Q61831 whole entry): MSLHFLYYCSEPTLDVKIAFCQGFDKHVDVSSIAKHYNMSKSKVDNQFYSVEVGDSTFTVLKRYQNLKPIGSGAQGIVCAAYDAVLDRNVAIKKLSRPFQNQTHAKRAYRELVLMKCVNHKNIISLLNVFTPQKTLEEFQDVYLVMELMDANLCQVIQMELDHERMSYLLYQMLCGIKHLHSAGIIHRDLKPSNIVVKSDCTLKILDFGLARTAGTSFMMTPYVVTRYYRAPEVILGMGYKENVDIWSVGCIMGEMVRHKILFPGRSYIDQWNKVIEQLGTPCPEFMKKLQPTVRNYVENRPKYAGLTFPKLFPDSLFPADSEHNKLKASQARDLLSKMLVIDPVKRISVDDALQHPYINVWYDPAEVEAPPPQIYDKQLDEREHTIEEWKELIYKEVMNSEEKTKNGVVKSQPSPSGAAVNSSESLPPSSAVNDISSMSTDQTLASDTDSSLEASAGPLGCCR

| Structure (SMILES) | mass spectrometry score, JNK3 (JNK3) | number of identified peptides, JNK3 (JNK3) | mass spectrometry score, GSK3Aps (GSK3Aps) | number of identified peptides, GSK3Aps (GSK3Aps) | mass spectrometry score, CaMKK2 (CaMKK2) | number of identified peptides, CaMKK2 (CaMKK2) | mass spectrometry score, CaMK2a (CaMK2a) | number of identified peptides, CaMK2a (CaMK2a) | number of identified peptides, RSK3 (RSK3) | mass spectrometry score, EphA4 (EphA4) | number of identified peptides, EphA4 (EphA4) | mass spectrometry score, Erk1ps5 (Erk1ps5) | number of identified peptides, Erk1ps5 (Erk1ps5) | mass spectrometry score, EphB2 (EphB2) | number of identified peptides, EphB2 (EphB2) | mass spectrometry score, AAK1 (AAK1) | number of identified peptides, AAK1 (AAK1) | mass spectrometry score, JNK2 (JNK2) | number of identified peptides, JNK2 (JNK2) | mass spectrometry score, Erk2 (Erk2) | further results |
| --- | --- | --- | --- | --- | --- | --- | --- | --- | --- | --- | --- | --- | --- | --- | --- | --- | --- | --- | --- | --- | --- |
| CNC1CC2OC(C)(C1OC)n1c3ccccc3c3c4c(c5c6ccccc6n2c5c31)C(=O)NC4 (stereo not shown) [CZC9280] | 363 | 10 | 868 | 47 | 282 | 10 | 1027 | 69 | 21 | 332 | 11 | 71 | 2 | 114 | 4 | 777 | 44 | – | – | – | – |
| Cn1c(=O)c(-c2c(Cl)cccc2Cl)cc2cnc(Nc3ccc(CN)cc3)cc21 [CZC7324] | 782 | 49 | 154 | 3 | 101 | 3 | 513 | 11 | 12 | 1233 | 32 | 557 | 77 | 1004 | 22 | 582 | 35 | 702 | 21 | 1179 | mass spectrometry score, EphA5 (EphA5): 144; number of identified peptides, EphA5 (EphA5): 3; number of identified peptides, Erk2 (Erk2): 235 |
| CC(C)[C@H](CO)Nc1nc(Nc2ccc(C(=O)O)c(Cl)c2)c2ncn(C(C)C)c2n1 [Purvalanol B, reference compound] | 284 | 7 | 357 | 6 | 465 | 9 | 978 | 27 | 11 | 1702 | 37 | 749 | 48 | 1334 | 30 | 1036 | 51 | 277 | 7 | 1437 | mass spectrometry score, EphA5 (EphA5): 330; number of identified peptides, EphA5 (EphA5): 14; number of identified peptides, Erk2 (Erk2): 115 |
| NCc1ccc(Nc2ncc(F)c(Nc3ccccc3)n2)cc1 [CZC00008004] | 642 | 23 | 635 | 27 | 522 | 12 | 966 | 43 | – | 138 | 3 | 386 | 26 | 149 | 5 | 718 | 35 | 662 | 18 | 810 | number of identified peptides, Erk2 (Erk2): 46 |
| CCCCCCCCCCCCOS(=O)(=O)[O-].[Na+] [SDS] | 447 | 27 | 585 | 77 | 338 | 10 | 786 | 74 | 6 | 727 | 33 | 239 | 8 | 437 | 19 | 240 | 32 | 369 | 20 | 1023 | mass spectrometry score, EphA5 (EphA5): 246; number of identified peptides, EphA5 (EphA5): 9; number of identified peptides, Erk2 (Erk2): 102 |

From patent US20090238808A1, “Process for the identification of novel enzyme interacting compounds” (priority 2005, published 2009)
